Laboratory results taken from ChEMBL document CHEMBL3867477 (Bioorg Med Chem Lett, 2016).
≈ marks a conversion by molar mass, not a printed value.

How the values were obtained:
[1] = Displacement of (2S)-N-(2-phenylphenyl)-1-[2-[1-(tritritiomethyl)benzimidazol-2-yl]sulfanylacetyl]pyrrolidine-2-carboxamide from human OX1 receptor Ile408-Val mutant expressed on CHO cell membrane measured after 3 hrs by TopCount method; format: cell membranes
Orexin receptor type 2 = biological target: T1, Orexin receptor type 2 (Homo sapiens, UniProt O43614); experiment: Displacement of (2S)-N-(2-pyrrol-1-ylphenyl)-1-[2-[1-(tritritiomethyl)benzimidazol-2-yl]sulfanylacetyl]pyrrolidine-2-carboxamide from human OX2 receptor expressed on CHO cell membrane measured after 3 hrs by TopCount method; format: cell membranes
T1 sequence (O43614 whole entry): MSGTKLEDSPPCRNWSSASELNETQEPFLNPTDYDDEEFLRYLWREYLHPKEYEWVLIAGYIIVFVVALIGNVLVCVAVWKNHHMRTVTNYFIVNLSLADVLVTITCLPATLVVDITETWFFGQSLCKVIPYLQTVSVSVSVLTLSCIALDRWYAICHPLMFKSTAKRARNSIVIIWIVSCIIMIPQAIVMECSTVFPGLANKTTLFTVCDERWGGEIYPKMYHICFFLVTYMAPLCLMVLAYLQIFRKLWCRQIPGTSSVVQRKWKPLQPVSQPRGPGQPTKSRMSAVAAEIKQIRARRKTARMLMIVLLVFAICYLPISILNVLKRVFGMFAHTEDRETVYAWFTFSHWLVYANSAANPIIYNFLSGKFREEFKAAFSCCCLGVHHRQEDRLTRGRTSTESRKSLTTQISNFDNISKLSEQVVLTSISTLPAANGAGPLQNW

CHO = experiment: Selectivity index, ratio of Ki for human OX2 receptor expressed on CHO cell membrane to Ki for Ile408-Val variant human OX1 receptor expressed on CHO cell membrane; format: cell-based
[2] = Aqueous solubility of the compound at pH 7; format: physicochemical; details: aqueous medium
Cytochrome P450 3A4 = Cytochrome P450 3A4 (Homo sapiens, UniProt P08684); experiment: Inhibition of CYP3A4 (unknown origin); format: ADME
[3] = biological target: Voltage-dependent L-type calcium channel subunit alpha-1C (Homo sapiens, UniProt Q13936); experiment: Inhibition of Cav1.2 (unknown origin)
Cytochrome P450 2C9 = Cytochrome P450 2C9 (Homo sapiens, UniProt P11712); experiment: Inhibition of CYP2C9 (unknown origin); format: ADME
[4] = Solubility of the compound; format: physicochemical

Chain of Voltage-dependent L-type calcium channel subunit alpha-1C (Q13936 whole entry): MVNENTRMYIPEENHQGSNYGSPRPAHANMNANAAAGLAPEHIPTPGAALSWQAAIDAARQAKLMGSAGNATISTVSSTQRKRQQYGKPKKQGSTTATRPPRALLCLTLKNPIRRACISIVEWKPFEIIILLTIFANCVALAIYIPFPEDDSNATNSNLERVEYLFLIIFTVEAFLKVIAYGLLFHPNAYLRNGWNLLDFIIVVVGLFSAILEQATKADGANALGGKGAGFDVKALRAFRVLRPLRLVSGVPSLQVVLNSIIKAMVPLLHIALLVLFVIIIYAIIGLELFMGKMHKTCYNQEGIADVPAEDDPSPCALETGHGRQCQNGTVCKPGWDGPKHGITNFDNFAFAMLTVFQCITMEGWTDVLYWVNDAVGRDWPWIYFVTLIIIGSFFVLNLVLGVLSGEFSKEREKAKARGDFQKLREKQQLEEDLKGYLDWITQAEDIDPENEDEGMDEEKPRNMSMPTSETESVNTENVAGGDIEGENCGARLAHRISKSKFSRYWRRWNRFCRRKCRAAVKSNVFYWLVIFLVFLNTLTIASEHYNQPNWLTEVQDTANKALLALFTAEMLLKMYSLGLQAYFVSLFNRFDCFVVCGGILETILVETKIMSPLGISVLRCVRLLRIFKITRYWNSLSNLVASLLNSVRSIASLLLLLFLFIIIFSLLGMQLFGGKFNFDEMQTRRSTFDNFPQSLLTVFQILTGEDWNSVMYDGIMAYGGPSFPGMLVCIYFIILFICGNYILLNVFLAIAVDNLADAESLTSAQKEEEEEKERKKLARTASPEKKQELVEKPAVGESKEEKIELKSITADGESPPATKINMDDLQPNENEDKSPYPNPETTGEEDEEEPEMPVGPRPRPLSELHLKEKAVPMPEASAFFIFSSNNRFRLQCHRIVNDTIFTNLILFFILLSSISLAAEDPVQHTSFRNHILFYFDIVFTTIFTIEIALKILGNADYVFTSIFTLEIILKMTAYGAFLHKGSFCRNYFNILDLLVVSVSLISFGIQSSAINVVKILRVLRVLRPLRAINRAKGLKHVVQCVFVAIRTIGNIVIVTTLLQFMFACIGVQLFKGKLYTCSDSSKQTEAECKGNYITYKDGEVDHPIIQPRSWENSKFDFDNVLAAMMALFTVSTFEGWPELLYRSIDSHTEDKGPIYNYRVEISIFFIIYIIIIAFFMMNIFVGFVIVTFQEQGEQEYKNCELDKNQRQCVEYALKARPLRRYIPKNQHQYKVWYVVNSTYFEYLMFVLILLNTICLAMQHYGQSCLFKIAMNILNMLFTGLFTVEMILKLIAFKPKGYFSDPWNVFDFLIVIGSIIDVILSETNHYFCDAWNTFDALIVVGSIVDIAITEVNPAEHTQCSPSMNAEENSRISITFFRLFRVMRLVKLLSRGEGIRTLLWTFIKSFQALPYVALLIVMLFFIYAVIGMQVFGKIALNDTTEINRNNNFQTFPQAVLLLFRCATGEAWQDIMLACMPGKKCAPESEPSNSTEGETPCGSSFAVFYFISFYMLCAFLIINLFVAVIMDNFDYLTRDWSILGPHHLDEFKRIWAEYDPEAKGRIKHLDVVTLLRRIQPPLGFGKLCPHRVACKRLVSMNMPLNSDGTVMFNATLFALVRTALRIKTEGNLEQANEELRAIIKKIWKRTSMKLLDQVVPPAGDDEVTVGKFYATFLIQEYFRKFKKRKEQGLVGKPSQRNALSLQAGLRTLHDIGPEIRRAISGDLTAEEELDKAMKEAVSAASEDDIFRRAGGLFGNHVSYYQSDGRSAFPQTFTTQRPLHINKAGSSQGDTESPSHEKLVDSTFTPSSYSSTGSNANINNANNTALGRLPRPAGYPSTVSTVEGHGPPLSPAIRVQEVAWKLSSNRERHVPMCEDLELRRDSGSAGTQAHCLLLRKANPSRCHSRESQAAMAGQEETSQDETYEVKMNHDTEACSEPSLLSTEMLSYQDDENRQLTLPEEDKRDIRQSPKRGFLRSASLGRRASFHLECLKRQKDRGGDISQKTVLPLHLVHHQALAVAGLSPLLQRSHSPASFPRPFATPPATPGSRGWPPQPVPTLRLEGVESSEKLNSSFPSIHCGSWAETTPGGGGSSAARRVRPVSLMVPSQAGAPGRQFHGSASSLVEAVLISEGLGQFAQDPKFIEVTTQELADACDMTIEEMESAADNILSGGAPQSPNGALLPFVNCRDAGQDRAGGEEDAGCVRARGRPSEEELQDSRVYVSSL
Chain of Cytochrome P450 3A4 (P08684 whole entry): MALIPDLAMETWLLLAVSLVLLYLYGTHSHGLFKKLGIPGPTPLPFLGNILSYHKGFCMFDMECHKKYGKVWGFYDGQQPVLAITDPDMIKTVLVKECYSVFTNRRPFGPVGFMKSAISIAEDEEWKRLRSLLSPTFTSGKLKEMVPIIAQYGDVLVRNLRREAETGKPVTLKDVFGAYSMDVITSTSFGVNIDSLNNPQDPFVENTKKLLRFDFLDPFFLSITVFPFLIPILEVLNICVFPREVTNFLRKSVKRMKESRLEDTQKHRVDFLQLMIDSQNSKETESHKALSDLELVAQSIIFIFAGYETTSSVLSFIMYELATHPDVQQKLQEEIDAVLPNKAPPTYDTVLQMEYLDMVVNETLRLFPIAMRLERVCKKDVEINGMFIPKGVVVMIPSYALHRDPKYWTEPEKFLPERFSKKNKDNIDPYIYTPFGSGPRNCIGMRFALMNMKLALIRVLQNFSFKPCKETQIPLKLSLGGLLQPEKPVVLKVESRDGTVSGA
Chain of Cytochrome P450 2C9 (P11712 whole entry): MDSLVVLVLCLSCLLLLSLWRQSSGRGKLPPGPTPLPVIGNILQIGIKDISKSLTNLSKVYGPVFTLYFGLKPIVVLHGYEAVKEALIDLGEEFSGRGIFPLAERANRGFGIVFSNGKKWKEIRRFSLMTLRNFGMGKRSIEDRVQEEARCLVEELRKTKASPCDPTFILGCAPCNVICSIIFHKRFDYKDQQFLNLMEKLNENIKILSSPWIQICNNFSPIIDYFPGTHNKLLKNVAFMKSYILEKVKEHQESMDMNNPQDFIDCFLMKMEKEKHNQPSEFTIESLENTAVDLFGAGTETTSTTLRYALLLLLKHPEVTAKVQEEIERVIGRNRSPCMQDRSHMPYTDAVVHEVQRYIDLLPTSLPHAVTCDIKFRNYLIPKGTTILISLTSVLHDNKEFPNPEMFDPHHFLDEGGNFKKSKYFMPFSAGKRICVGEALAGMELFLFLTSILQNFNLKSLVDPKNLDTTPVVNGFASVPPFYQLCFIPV

| SMILES | Ki [1] [nM] | Ki (Orexin receptor type 2) [nM] | Ratio Ki (CHO) | solubility [2] [µM] | inhibition (INH) (Cytochrome P450 3A4) | inhibition (INH) [3] | inhibition (INH) (Cytochrome P450 2C9) | solubility [4] | INH (Cytochrome P450 3A4) [µM] | INH (Cytochrome P450 2C9) [µM] |
| --- | --- | --- | --- | --- | --- | --- | --- | --- | --- | --- |
| O=C(c1ccccc1-n1nccn1)N1CCC[C@@H](Oc2ccc3ccccc3n2)C1 | 1.4 | 27 | 19 |  |  |  |  |  |  |  |
| O=C(c1ccccc1-n1nccn1)N1CCC(F)(F)C(Oc2ccc3ccccc3n2)C1 (racemic) | 3.9 | 1140 | 292 |  |  |  |  |  |  |  |
| O=C(c1cccc2[nH]ccc12)N1CCC(F)(F)[C@@H](Oc2ccc3ccccc3n2)C1 | 0.5 | 120 | 240 | 13 (≈ 5.3 µg/mL) |  |  |  |  |  |  |
| O=C(c1ccccc1-n1nccn1)N1CCC(F)(F)C(Oc2nc3ccccc3o2)C1 (stereo not given) | 49 | 467 | 9.5 |  | Active | Active | Active | Insoluble |  |  |
| O=C(c1ccccc1-n1nccn1)N1CCC(F)(F)C(Oc2cnc3ccccc3n2)C1 (stereo not given) | 13 | 933 | 72 |  | Active | Active | Active | Insoluble |  |  |
| O=C(c1ccccc1-n1nccn1)N1CCC(F)(F)C(Oc2ccccn2)C1 (stereo not given) | 4050 | 1040 | 0.26 |  | Active | Active | Active | Insoluble |  |  |
| COc1ccccc1C(=O)N1CCC(F)(F)C(Oc2ccc3ccccc3n2)C1 (racemic) | 24 | > 2630 | > 110 |  | Active | Active | Active | Insoluble |  |  |
| O=C(c1ccccc1-c1ncccn1)N1CCC(F)(F)[C@@H](Oc2ccc3ccccc3n2)C1 | 1.8 | 281 | 156 |  |  |  |  |  |  |  |
| O=C(c1ccccc1-n1nccn1)N1CCC(F)(F)C(Oc2ncc3ccccc3n2)C1 (stereo not given) | 13 | 1470 | 113 |  | Active | Active | Active | Insoluble |  |  |
| O=C(c1ccccc1-n1nccn1)N1CCC(F)(F)C(Oc2cc(C(F)(F)F)ccn2)C1 (stereo not given) | 292 | 14 | 0.05 |  | Active | Active | Active | Insoluble |  |  |
| O=C(c1ccccc1F)N1CCC(F)(F)C(Oc2ccc3ccccc3n2)C1 (racemic) | 23 | > 1770 | > 77 |  | Active | Active | Active | Insoluble |  |  |
| O=C(c1ccccc1-n1nccn1)N1CCC(F)(F)C(Oc2cc3ccccc3cn2)C1 (stereo not given) | 59 | 379 | 6.4 |  | Active | Active | Active | Insoluble |  |  |
| O=C(c1ccccc1)N1CCC(F)(F)C(Oc2ccc3ccccc3n2)C1 (racemic) | 55 | > 12700 | > 230 |  | Active | Active | Active | Insoluble |  |  |
| O=C(c1cccc(-n2nccn2)c1)N1CCC(F)(F)[C@@H](Oc2ccc3ccccc3n2)C1 | 8.3 | 871 | 104 |  |  |  |  |  |  |  |
| O=C(c1ccc(F)cc1)N1CCC(F)(F)C(Oc2ccc3ccccc3n2)C1 (racemic) | 1080 | > 4380 | > 4 |  | Active | Active | Active | Insoluble |  |  |
| O=C(c1cccc(-n2cccn2)c1)N1CCC(F)(F)[C@@H](Oc2ccc3ccccc3n2)C1 | 1.1 | 627 | 570 |  |  |  |  |  |  |  |
| O=C(c1cccc(F)c1)N1CCC(F)(F)C(Oc2ccc3ccccc3n2)C1 (racemic) | 91 | > 4380 | > 48 |  | Active | Active | Active | Insoluble |  |  |
| COc1ccc(C[C@H]2c3cc(OC)c(OC)cc3CCN2[C@@H](C(=O)NC(C)C)c2ccccc2)cc1OC | 6 |  |  |  |  |  |  |  |  |  |
| COc1cccc(C(=O)N2CCC(F)(F)C(Oc3ccc4ccccc4n3)C2)c1 (racemic) | 9.1 | > 4380 | > 481 |  | Active | Active | Active | Insoluble |  |  |

| SMILES | Ki [1] [nM] | Ki (Orexin receptor type 2) [nM] | Ratio Ki (CHO) | solubility [2] [µM] | inhibition (INH) (Cytochrome P450 3A4) | inhibition (INH) [3] | inhibition (INH) (Cytochrome P450 2C9) | solubility [4] | INH (Cytochrome P450 3A4) [µM] | INH (Cytochrome P450 2C9) [µM] |
| --- | --- | --- | --- | --- | --- | --- | --- | --- | --- | --- |
| O=C(c1cccc2nccn12)N1CCC(F)(F)C(Oc2ccc3ccccc3n2)C1 (racemic) | 564 | > 3330 | > 6 |  |  |  |  |  |  |  |
| O=C(c1cccn2cncc12)N1CCC(F)(F)C(Oc2ccc3ccccc3n2)C1 (racemic) | 2.9 | > 12700 | > 439 |  |  |  |  |  |  |  |
| COc1ccc(F)c(C(=O)N2CCC(F)(F)[C@@H](Oc3ccc4ccccc4n3)C2)c1F | 1.1 | 1230 | 1120 |  |  | Active |  | Insoluble | 6.7 | 10.8 |
| O=C(c1cccc2cncn12)N1CCC(F)(F)C(Oc2ccc3ccccc3n2)C1 (racemic) | 52 | > 2100 | > 40 |  |  |  |  |  |  |  |
| C[C@@H]1CC[C@@H](Oc2ccc3ccccc3n2)CN1C(=O)c1ccccc1-n1nccn1 | 3.9 | 9 | 2.3 |  |  |  |  |  |  |  |
| O=C(c1cccc2ncccc12)N1CCC(F)(F)C(Oc2ccc3ccccc3n2)C1 (racemic) | 140 | 861 | 6.2 |  |  |  |  |  |  |  |
| O=C(c1ccccc1-n1nccn1)N1CCC(F)(F)C(Oc2nc3ccccc3s2)C1 (stereo not given) | 2.3 | 220 | 96 |  | Active | Active | Active | Insoluble |  |  |
| O=C(c1ccccc1-n1nccn1)N1CCC(F)(F)C(Oc2ccc3cccnc3n2)C1 (stereo not given) | 1160 | > 1410 |  |  | Active | Active | Active | Insoluble |  |  |
| O=C(c1ccccc1-n1nccn1)N1CCC(F)(F)C(Oc2ccc(C(F)(F)F)cn2)C1 (stereo not given) | 14 | 467 | 33 |  | Active | Active | Active | Insoluble |  |  |
| O=C(c1ccnc2[nH]cnc12)N1CCC(F)(F)C(Oc2ccc3ccccc3n2)C1 (racemic) | 89 | > 5870 | > 65 |  |  |  |  |  |  |  |
| O=C(c1ccccc1-n1nccn1)N1CCC(F)(F)C(Oc2ccnc3ccccc23)C1 (stereo not given) | 7970 | 277 | 0.035 |  | Active | Active | Active | Insoluble |  |  |
| O=C(c1ccccc1-n1nccn1)N1CCC(F)(F)C(Oc2cccc(C(F)(F)F)n2)C1 (stereo not given) | 240 | 907 | 3.8 |  | Active | Active | Active | Insoluble |  |  |
| O=C(c1ccccc1-n1nccn1)N1CCC(F)(F)C(O)C1 (stereo not given) | 2240 | > 3370 |  |  |  |  |  |  |  |  |
| Cc1ccccc1C(=O)N1CCC(F)(F)C(Oc2ccc3ccccc3n2)C1 (racemic) | 52 | > 2630 | > 51 |  | Active | Active | Active | Insoluble |  |  |
| O=C(c1cncc2[nH]ccc12)N1CCC(F)(F)[C@@H](Oc2ccc3ccccc3n2)C1 | 0.28 | 108 | 386 |  |  |  |  |  |  |  |
| O=C(c1cccc(-c2ncc[nH]2)c1)N1CCC(F)(F)[C@@H](Oc2ccc3ccccc3n2)C1 | 0.14 | 193 | 1000 to 1380 |  |  |  |  |  |  |  |
| O=C(c1ccccc1-n1nccn1)N1CCC(F)(F)C(Oc2nccc3ccccc23)C1 (stereo not given) | 6.5 | 2.8 | 0.43 |  | Active | Active | Active | Insoluble |  |  |
| Cc1ccc(-c2ncccn2)c(C(=O)N2CC(COc3ccc(F)cn3)CC[C@H]2C)c1 (stereo not given in full) | 11 | 11 | 1.1 |  |  |  |  |  |  |  |
| COc1ccc(F)c(C(=O)N2CCC(F)(F)C(Oc3ccc4ccccc4n3)C2)c1 (racemic) | 3.4 | 1620 | 476 |  |  | Active |  | Insoluble | 6.7 | 10.8 |
